Experiment [1] concerns the target AdiC (S26C mutant) (Salmonella enterica, UniProt P60066, C129S/C238S/C281S/C286S/C369S/C398S/C80S/C97S/S26C). Kind of experiment: competitive inhibition of […]-arginine uptake in oriented proteoliposomes. In kind it is biochemical.
The target of experiment [2] is T1, AdiC (S26C mutant) (Salmonella enterica, UniProt P60066, S26C/C80S/C97S/C129S/C238S/C281S/C286S/C369S/C398S).
T1 sequence (P60066 1-445 S26C/C80S/C97S/C129S/C238S/C281S/C286S/C369S/C398S): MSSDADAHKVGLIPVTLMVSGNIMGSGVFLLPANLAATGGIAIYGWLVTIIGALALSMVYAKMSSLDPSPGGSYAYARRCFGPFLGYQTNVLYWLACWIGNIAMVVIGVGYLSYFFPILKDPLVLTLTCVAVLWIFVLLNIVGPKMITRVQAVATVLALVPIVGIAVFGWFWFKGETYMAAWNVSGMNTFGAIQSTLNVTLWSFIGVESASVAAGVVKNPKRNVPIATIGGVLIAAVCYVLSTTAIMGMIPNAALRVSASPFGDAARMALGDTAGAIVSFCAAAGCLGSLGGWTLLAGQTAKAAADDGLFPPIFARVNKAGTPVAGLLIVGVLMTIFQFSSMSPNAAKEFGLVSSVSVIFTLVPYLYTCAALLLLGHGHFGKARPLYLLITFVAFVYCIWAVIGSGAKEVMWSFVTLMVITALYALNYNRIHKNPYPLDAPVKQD
Kind of experiment: isothermal titration calorimetry. The experiment is classed as binding.

Experiment [3] deals with AdiC (arginine-agmatine antiporter) (Salmonella enterica, UniProt P60066). Kind of experiment: isothermal titration calorimetry. In kind it is binding. (In general: ITC needs no label: the signal is the heat of the interaction.)

These results are taken from article PMC3290904 (Biochemistry, 2012).

Structures are written as SMILES.

Turning to `N=C(N)NCCC[C@H](N)C(N)=O` [argininamide], the inhibitory constant (Ki) on AdiC (S26C mutant) [1] was determined as 1100 µM.

For `N=C(N)NCCC[C@H](N)C(=O)O` [arginine], the Kd at AdiC (S26C mutant) [2] stood at 22 ± 2 µM; in experiment [3] it was 32 µM.

As usually defined, the Ki is a dissociation constant, usually derived from enzyme kinetics or from competition with a known ligand. Read a high Ki as weaker binding. One may read the Kd as the concentration at which binding is half-saturated. Higher therefore signals a looser complex.
